Test: xn = mol fraction of the nth substance listed

CC[NH3+].O=[N+]([O-])[O-] + CC#N
100 kPa
Conditions | electrical conductivity [S/m] | viscosity [mPa·s]
278 K, x1 = 0.3 | 2.52 | –
288 K, x1 = 0.7 | 2.71 | –
288.08 K, x1 = 0.7 | – | 20.78
288.08 K, x1 = 0.98 | – | 43.7
288.09 K, x1 = 0.3 | – | 3.15
293.09 K, x1 = 0.3 | – | 2.819
298 K, x1 = 0.7 | 3.71 | 14.73
298.1 K, x1 = 0.98 | – | 33.2
298.14 K, x1 = 0.2 | – | 1.406
308 K, x1 = 0.2 | 5.19 | –
308 K, x1 = 0.7 | 4.94 | –
308.09 K, x1 = 0.8 | – | 14.76
308.11 K, x1 = 0.9 | – | 20.7
308.12 K, x1 = 0.6 | – | 7.76
308.14 K, x1 = 0.7 | – | 10.53
308.15 K, x1 = 0.3 | – | 2.292

CC[n+]1ccn(C)c1.N#C[S-] + CCCO
viscosity [mPa·s], 101 kPa
Conditions | 283.15 K | 293.15 K | 303.15 K | 313.15 K | 323.15 K
x1 = 0.0494 | 3.32 | 2.6 | 2.07 | 1.68 | 1.38
x1 = 0.0994 | 4.04 | 3.12 | 2.47 | 1.99 | 1.63
x1 = 0.1997 | 5.49 | 4.24 | 3.4 | 2.63 | 2.17
x1 = 0.3015 | 7.06 | 5.36 | 4.21 | 3.42 | 2.87
x1 = 0.3996 | 9.09 | 6.89 | 5.39 | 4.34 | 3.58
x1 = 0.4986 | 12.1 | 9.09 | 7.06 | 5.65 | 4.64
x1 = 0.5998 | 15.89 | 11.72 | 8.97 | 7.08 | 5.66
x1 = 0.7008 | 20.24 | 14.76 | 10.88 | 8.47 | 6.81
x1 = 0.8005 | 25.11 | 17.87 | 13.31 | 10.27 | 8.17
x1 = 0.9002 | 30.71 | 21.99 | 16.11 | 12.25 | 9.62
x1 = 0.946 | 34.98 | 24.14 | 17.68 | 13.52 | 10.63
x1 = 1 | 38.41 | 26.31 | 19.03 | 14.3 | 11.1

C=C[n+]1ccn(CC(N)=O)c1.O=S(=O)([N-]S(=O)(=O)C(F)(F)F)C(F)(F)F + CC#N
100 kPa
Conditions | electrical conductivity [S/m] | viscosity [mPa·s]
298.15 K, x1 = 0.01 | 1.29 | 0.67
303.15 K, x1 = 0.07 | 3.51 | –
303.15 K, x1 = 0.1 | 3.28 | 10
303.15 K, x1 = 0.2 | 1.77 | –
303.15 K, x1 = 0.201 | – | 69
303.15 K, x1 = 0.393 | 0.48 | –
303.15 K, x1 = 0.4011 | – | 680
308.15 K, x1 = 0.01 | 1.4 | 0.61
308.15 K, x1 = 0.02 | 2.78 | –
308.15 K, x1 = 0.201 | – | 60
308.15 K, x1 = 1 | 0.03 | –
313.15 K, x1 = 0.1 | 3.8 | 8.2
313.15 K, x1 = 0.4011 | – | 424
318.15 K, x1 = 0.01 | 1.53 | 0.55
318.15 K, x1 = 0.047 | 3.87 | –
318.15 K, x1 = 0.2 | 2.38 | –
323.15 K, x1 = 0.08 | 4.39 | –
323.15 K, x1 = 0.2 | 2.58 | –
323.15 K, x1 = 0.3026 | – | 119
323.15 K, x1 = 1 | 0.1 | –
328.15 K, x1 = 0.07 | 4.58 | –
328.15 K, x1 = 0.1 | 4.49 | 6.6
328.15 K, x1 = 0.4011 | – | 233
328.15 K, x1 = 1 | 0.14 | –
333.15 K, x1 = 0.047 | 4.34 | –
333.15 K, x1 = 0.201 | – | 32.7
